Results published in patent publication US11104593B2, “Compositions exhibiting synergy in biofilm control” (SOLENIS TECHNOLOGIES, L.P., priority 2017, dated 2021).

Test system: Pseudomonas putida biofilms
Assay: Biofilm eradication (MBEC) test: viable plate counts of biofilms on stainless steel 316 coupons from a CDC Biofilm reactor after two hours of treatment
Format: cell-based
Conditions: 20 mg/L MCA alone, viable biofilm population vs untreated control, 2 h, 28° C.
Description: In this work the efficacy of the agents alone and in combination were determined by measuring the number of viable cells in model biofilms remaining after treatment. The Minimum Biofilm Eradication value (MBEC) is defined as a 95% reduction in the number of viable cells compared to the untreated control.
Dose response studies were performed to determine the Minimum Biofilm Eradication Concentration (MBEC) for monochloramine and PEI alone. The MBEC is defined as the concentration of agent that reduces the viable biofilm population by 95% of the untreated control value as measured by viable plate counts. Experiments were then performed to determine the result of combining the two agents, oxidizing biocide monochloramine and dispersant PEI alone, on biofilm populations. The experiments examined three concentrations of monochloramine with four concentrations of PEI alone.
M9YG media is a simple minimal salt medium supplemented with 500 mg/L glucose and 0.01% yeast extract. The salts composition was intended to mimic a typical cooling tower water composition. […]
Briefly, biofilms were grown on stainless steel 316 coupons in a CDC Biofilm reactor using M9YG minimal salts growth media for a period of twenty-four hours. […] Viable cells released into the fluid were then determined by a plating method.

NCl [MCA, monochloramine]
% reduction: 93.58% | % reduction (listed as monochloramine): greater than 90%
